# According to ChEMBL document CHEMBL3885881, “DrugMatrix”:
# Organism: Rattus norvegicus
# Assay: DrugMatrix - Regimen: Daily Repeat
# Format: toxicity, organism-based, Sprague-Dawley
# Parameters: regimen Daily Repeat, gender Male, age 6-8 weeks
# Conditions: in vivo, sc, route subcutaneous, […]; for ABSOLUTE BASOPHIL / ABSOLUTE EOSINOPHIL / ABSOLUTE LYMPHOCYTE / ABSOLUTE MONOCYTE / ABSOLUTE SEGMENTED NEUTROPHIL / BASOPHIL / EOSINOPHIL / ERYTHROCYTE COUNT / HEMATOCRIT / HEMOGLOBIN / LEUKOCYTE COUNT / LYMPHOCYTE / MEAN CORPUSCULAR HEMOGLOBIN / MEAN CORPUSCULAR HEMOGLOBIN CONCENTRATION / MEAN CORPUSCULAR VOLUME / MONOCYTE / NEUTROPHIL / NUCLEATED RED BLOOD CELLS / PLATELET COUNT: tissue Blood; for ALANINE AMINOTRANSFERASE / ALBUMIN / ALKALINE PHOSPHATASE / ASPARTATE AMINOTRANSFERASE / BLOOD UREA NITROGEN / CARBON DIOXIDE / CHLORIDE / CHOLESTEROL / CREATINE PHOSPHOKINASE / CREATININE / GLUCOSE / LACTATE DEHYDROGENASE / LIPASE / PHOSPHORUS / POTASSIUM / SODIUM / TOTAL BILIRUBIN / TOTAL PROTEIN / URIC ACID: tissue Plasma
# [1] = 18 mg/kg, 120 h, dose level High, time 5 day
# [2] = 72 h, dose 1.8 mg/Kg, dose level Low, time 3 day
# [3] = 120 h, dose 1.8 mg/Kg, dose level Low, time 5 day
smiles,measurement,setting,value
CN(C)c1ccc(C(=C2C=CC(=[N+](C)C)C=C2)c2ccc(N(C)C)cc2)cc1.[Cl-] [GENTIAN VIOLET],ABSOLUTE BASOPHIL,[1],0 CELLS/uL
same,ABSOLUTE EOSINOPHIL,[1],0 CELLS/uL
same,ABSOLUTE LYMPHOCYTE,[1],15601 CELLS/uL
same,ABSOLUTE MONOCYTE,[1],1849 CELLS/uL
same,ABSOLUTE SEGMENTED NEUTROPHIL,[1],7750 CELLS/uL
same,BASOPHIL,[1],0%
same,EOSINOPHIL,[1],0%
same,ERYTHROCYTE COUNT,[1],5.48 x10E6/uL
same,HEMATOCRIT,[1],32.93%
same,HEMOGLOBIN,[1],12.37 G/DL
same,LEUKOCYTE COUNT,[1],25.2 x10E3/uL
same,LYMPHOCYTE,[1],61.67%
same,MEAN CORPUSCULAR HEMOGLOBIN,[1],22.57 pg
same,MEAN CORPUSCULAR HEMOGLOBIN CONCENTRATION,[1],37.57 G/DL
same,MEAN CORPUSCULAR VOLUME,[1],60.17 fL
same,MONOCYTE,[1],7.33%
same,NEUTROPHIL,[1],31%
same,NUCLEATED RED BLOOD CELLS,[1],0 /100WBC
same,PLATELET COUNT,[1],1331.67 x10E3/uL
same,ALANINE AMINOTRANSFERASE,[1],49 u/L
same,ALBUMIN,[1],3.03 G/DL
same,ALKALINE PHOSPHATASE,[1],294.67 u/L
same,ASPARTATE AMINOTRANSFERASE,[1],116 u/L
same,BLOOD UREA NITROGEN,[1],16.33 mg/dL
same,CARBON DIOXIDE,[1],30.67 mmol/L
same,CHLORIDE,[1],100 MEQ/L
same,CHOLESTEROL,[1],62.33 mg/dL
same,CREATINE PHOSPHOKINASE,[1],196.33 u/L
same,CREATININE,[1],0.16 mg/dL
same,GLUCOSE,[1],141.33 mg/dL
same,LACTATE DEHYDROGENASE,[1],146.33 u/L
same,LIPASE,[1],8 u/L
same,PHOSPHORUS,[1],11.3 mg/dL
same,POTASSIUM,[1],6.88 MEQ/L
same,SODIUM,[1],143.85 MEQ/L
same,TOTAL BILIRUBIN,[1],0.13 mg/dL
same,TOTAL PROTEIN,[1],5.57 G/DL
same,URIC ACID,[1],1.37 mg/dL
same,ABSOLUTE BASOPHIL,[2],0 CELLS/uL
same,ABSOLUTE EOSINOPHIL,[2],115.33 CELLS/uL
same,ABSOLUTE LYMPHOCYTE,[2],15675.67 CELLS/uL
same,ABSOLUTE MONOCYTE,[2],309.33 CELLS/uL
same,ABSOLUTE SEGMENTED NEUTROPHIL,[2],2499.67 CELLS/uL
same,BASOPHIL,[2],0%
same,EOSINOPHIL,[2],0.67%
same,ERYTHROCYTE COUNT,[2],5.43 x10E6/uL
same,HEMATOCRIT,[2],34.87%
same,HEMOGLOBIN,[2],12.97 G/DL
same,LEUKOCYTE COUNT,[2],18.6 x10E3/uL
same,LYMPHOCYTE,[2],84.33%
same,MEAN CORPUSCULAR HEMOGLOBIN,[2],23.9 pg
same,MEAN CORPUSCULAR HEMOGLOBIN CONCENTRATION,[2],37.2 G/DL
same,MEAN CORPUSCULAR VOLUME,[2],64.3 fL
same,MONOCYTE,[2],1.67%
same,NEUTROPHIL,[2],13.33%
same,NUCLEATED RED BLOOD CELLS,[2],0 /100WBC
same,PLATELET COUNT,[2],1276.67 x10E3/uL
same,ALANINE AMINOTRANSFERASE,[2],46 u/L
same,ALBUMIN,[2],3.93 G/DL
same,ALKALINE PHOSPHATASE,[2],341 u/L
same,ASPARTATE AMINOTRANSFERASE,[2],77.33 u/L
same,BLOOD UREA NITROGEN,[2],15 mg/dL
same,CARBON DIOXIDE,[2],26.67 mmol/L
same,CHLORIDE,[2],102 MEQ/L
same,CHOLESTEROL,[2],86.67 mg/dL
same,CREATINE PHOSPHOKINASE,[2],247 u/L
same,CREATININE,[2],0.19 mg/dL
same,GLUCOSE,[2],138.67 mg/dL
same,LACTATE DEHYDROGENASE,[2],298.33 u/L
same,LIPASE,[2],9.33 u/L
same,PHOSPHORUS,[2],11.5 mg/dL
same,POTASSIUM,[2],6.51 MEQ/L
same,SODIUM,[2],144.73 MEQ/L
same,TOTAL BILIRUBIN,[2],0.23 mg/dL
same,TOTAL PROTEIN,[2],5.73 G/DL
same,URIC ACID,[2],1.4 mg/dL
same,ABSOLUTE BASOPHIL,[3],0 CELLS/uL
same,ABSOLUTE EOSINOPHIL,[3],0 CELLS/uL
same,ABSOLUTE LYMPHOCYTE,[3],17006.67 CELLS/uL
same,ABSOLUTE MONOCYTE,[3],546.67 CELLS/uL
same,ABSOLUTE SEGMENTED NEUTROPHIL,[3],2113.33 CELLS/uL
same,BASOPHIL,[3],0%
same,EOSINOPHIL,[3],0%
same,ERYTHROCYTE COUNT,[3],5.57 x10E6/uL
same,HEMATOCRIT,[3],34.4%
same,HEMOGLOBIN,[3],12.93 G/DL
same,LEUKOCYTE COUNT,[3],19.67 x10E3/uL
same,LYMPHOCYTE,[3],86%
same,MEAN CORPUSCULAR HEMOGLOBIN,[3],23.2 pg
same,MEAN CORPUSCULAR HEMOGLOBIN CONCENTRATION,[3],37.6 G/DL
same,MEAN CORPUSCULAR VOLUME,[3],61.77 fL
same,MONOCYTE,[3],2.67%
same,NEUTROPHIL,[3],11.33%
same,NUCLEATED RED BLOOD CELLS,[3],0 /100WBC
same,PLATELET COUNT,[3],1503 x10E3/uL
same,ALANINE AMINOTRANSFERASE,[3],51 u/L
same,ALBUMIN,[3],3.47 G/DL
same,ALKALINE PHOSPHATASE,[3],278 u/L
same,ASPARTATE AMINOTRANSFERASE,[3],83.67 u/L
same,BLOOD UREA NITROGEN,[3],19 mg/dL
same,CARBON DIOXIDE,[3],27.33 mmol/L
same,CHLORIDE,[3],105 MEQ/L
same,CHOLESTEROL,[3],73.33 mg/dL
same,CREATINE PHOSPHOKINASE,[3],310 u/L
same,CREATININE,[3],0.35 mg/dL
same,GLUCOSE,[3],162 mg/dL
same,LACTATE DEHYDROGENASE,[3],102.67 u/L
same,LIPASE,[3],9.67 u/L
same,PHOSPHORUS,[3],11.3 mg/dL
same,POTASSIUM,[3],6.63 MEQ/L
same,SODIUM,[3],144.03 MEQ/L
same,TOTAL BILIRUBIN,[3],0.13 mg/dL
same,TOTAL PROTEIN,[3],5.8 G/DL
same,URIC ACID,[3],1.63 mg/dL
